Publication PMC11784839, “Monoaminergic neurotransmitters are bimodal effectors of tau aggregation” (Science Advances, 2025)

Target: tau (Homo sapiens, UniProt P10636)
Assay: MCE Phenols Library screening, tau biosensor cell seeding assay (AvZ)
Format: cell-based
Details: for AvZ (average z score of seeding, SDs from the mean level of seeding): 10 μM phenol in cell cultures, AD brain homogenate preincubated 16 hours, two biological replicates, positive = catalyzes seeding, negative = inhibits; for Z repl 1 / Z Repl 2: Z score; for Z repl 1 / raw data 1: replicate 1; for Z Repl 2 / raw data 2: replicate 2
[1] = average puncta of the two replicates
[2] = average Z score of the two replicates, MCE Phenols Library screen
[3] = average Z score of the two replicates, tau seeding
[4] = average Z score of two replicates, Phenols Library screen

tau, sequence (P10636 623-695 limits assumed): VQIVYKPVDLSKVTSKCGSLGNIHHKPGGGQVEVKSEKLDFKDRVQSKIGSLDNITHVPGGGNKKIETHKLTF

SMILES	AvZ (average z score of seeding, SDs from the mean level of seeding)	Z repl 1	Z Repl 2	av puncta (average of raw data 1 and 2)	raw data 1 (puncta)	raw data 2 (puncta)	av puncta [1]	raw data 1 (raw puncta)	raw data 2 (raw puncta)	av Z [2]	av Z [3]	av Z [4]	av Z (average Z score of the two replicates, tau biosensor seeding, MCE Phenols Library screen)
CCCCCC/C=C\CCCCCCCCCc1cccc(O)c1C(=O)O [Ginkgolic acid C17:1]	0.292	0.386	0.198	22931	30979.1	14882.8							
O=c1c(-c2ccc(O)cc2)coc2cc(O)ccc12 [Daidzein]							16957.6	27554	6361.09				
COc1cc(O)c2c(c1)oc(=O)c1c3cc(O)c(O)cc3oc21 [Wedelolactone]		-0.852	-1.136	8376	16120.2	631.756				-0.994			
CC(C)=CCc1c(O)ccc(C(=O)[C@@H]2[C@@H](c3c(O)cc(O)c4c(=O)c(CC=C(C)C)c(-c5ccc(O)cc5O)oc34)C=C(C)C[C@H]2c2ccc(O)cc2O)c1O [Kuwanon H]		-0.22	0.532	21077.1	23703	18451.1					0.156		
COc1c2ccoc2c(O)c2oc(=O)ccc12 [8-Hydroxybergapten]		-0.103	0.252	20281.2	25106.7	15455.8						0.074	
CC(C)=CCc1cc(-c2coc3cc(O)ccc3c2=O)ccc1O [Neobavaisoflavone]		0.415	-0.147	21263.5	31334.3	11192.7					0.134		
COc1cc(CCC(O)CC(O)CCc2ccc(O)c(OC)c2)ccc1O (stereo not shown) [Octahydrocurcumin]		-0.643	0.033				15871.9	18628.3	13115.6	-0.305			
CC(C)=CCc1cc2c(cc1O)O[C@H](c1ccc(O)cc1)CC2=O [Bavachin]		-0.343	-0.767		22229.8	4573.9	13401.9			-0.555			
COc1cc(O)cc(OC)c1 [3,5-Dimethoxyphenol]	0.275	0.645	-0.096	22916.8	34097.4	11736.1							
CC(C)=CCc1c2c(c(O)c3c1O[C@]14C(=C[C@@H]5C[C@H]1C(C)(C)O[C@@]4(C/C=C(/C)C(=O)O)C5=O)C3=O)C=CC(C)(C)O2 [Morellic acid]		-0.656	-0.586		18474.5	6511.03	12492.8			-0.621			
COc1cc(O)c2c(=O)c(OC)c(-c3ccc(OC)c(O)c3)oc2c1 [Ayanin]		-1.206	-0.903	7498.38	11871.6	3125.17				-1.054			
O=C(O)c1c(O)cccc1O [2,6-Dihydroxybenzoic acid]	0.715	0.475	0.955	27508.9	32047.3	22970.5							
O=C(/C=C/c1ccc(O)cc1)NCCc1c[nH]c2ccc(O)cc12 [N-(p-Coumaroyl) Serotonin]	-0.185	0.332	-0.702	17799.1	30331	5267.16							
C=CCc1cc(OC)c(O[C@@H](C)[C@H](O)c2ccc(O)c(OC)c2)c(OC)c1 [Myrislignan]		1.234	0.299	28560.9	41167.3	15954.5							0.766
COc1ccc2cc3[n+](cc2c1O)CCc1cc2c(cc1-3)OCO2.[Cl-] [Berberrubine (chloride)]		0.031	-0.189	18734.2	26719.5	10748.8						-0.079	
Oc1ccc([C@H]2COc3cc(O)ccc3C2)cc1 [(-)-(S)-Equol]		0.447	-0.597	19047.3	31709.7	6384.95						-0.075	
OC[C@H]1O[C@@H](Oc2ccc(O)cc2)[C@H](O)[C@@H](O)[C@@H]1O [Arbutin]		-0.665	0.333	17341.3	18360	16322.6						-0.166	

SMILES	AvZ (average z score of seeding, SDs from the mean level of seeding)	Z repl 1	Z Repl 2	av puncta (average of raw data 1 and 2)	raw data 1 (puncta)	raw data 2 (puncta)	av puncta [1]	raw data 1 (raw puncta)	raw data 2 (raw puncta)	av Z [2]	av Z [3]	av Z [4]	av Z (average Z score of the two replicates, tau biosensor seeding, MCE Phenols Library screen)
COc1c2c3c4c(c(OC)c(=O)c5c(O)cc(OC)c(c6c(OC)cc(O)c(c1=O)c63)c54)[C@@H](C(C)=O)[C@@](C)(O)C2 [Hypocrellin A]		-1.761	-1.119	3011.52	5209.06	813.974				-1.44			
O=c1cc(-c2ccc(O)cc2)oc2c([C@@H]3O[C@H](CO)[C@@H](O)[C@H](O)[C@H]3O)c(O)c([C@@H]3OC[C@@H](O)[C@H](O)[C@H]3O)c(O)c12 [Vicenin-1]		0.022	-0.802				15407.7	26610.5	4204.9	-0.39			
CCCOC(=O)c1ccc(O)cc1 [Propylparaben]	0.488	0.084	0.893	24829.8	27354.6	22304.9							
COc1cc(O)ccc1/C=C/C(=O)c1ccc(O)cc1 [Echinatin]		-1.092	-0.742	9040.03	13242.9	4837.17				-0.917			
COc1ccc(-c2oc3cc(O)cc(O)c3c(=O)c2O)cc1 [Kaempferide]		-0.102	-1.05		25119.1	1554.77	13337			-0.576			
CCCCCCCCC[C@H](O)CC(=O)CCc1ccc(O)c(OC)c1 [10-Gingerol]	-0.619	-0.921	-0.318		15293.5	9373.24	12333.4						
CCCCCCCCC/C=C/C(=O)CCc1ccc(O)c(OC)c1 [10-Shogaol]	-0.507												
O=C1C[C@@H](c2ccc(O)c(O)c2)Oc2c1ccc(O[C@@H]1O[C@H](CO)[C@@H](O)[C@H](O)[C@H]1O)c2O [Flavanomarein]		-0.895	-0.498		15599.3	7451.23	11525.3			-0.697			
N#CCc1ccc(O)cc1 [4-Hydroxybenzyl cyanide]	-0.064	0.423	-0.552	19148.8	31425.1	6872.51							
COC(=O)[C@@H](Cc1ccc(O)c(O)c1)OC(=O)/C=C/c1ccc(O)c(O)c1 [Methyl rosmarinate]		-0.241	-0.521				15329.6	23459.6	7199.56	-0.381			
COc1cccc(OC)c1C(=O)OCc1cc(O)ccc1O[C@@H]1O[C@H](CO)[C@@H](O)[C@H](O)[C@H]1O [Curculigoside]		-0.772	0.136				15649.1	17078.1	14220.1	-0.318			
O=C(/C=C/c1ccc(O)c2c1[C@H](C(=O)O)[C@@H](c1ccc(O)c(O)c1)O2)O[C@H](Cc1ccc(O)c(O)c1)C(=O)O [Lithospermic acid]		-1.337	-0.834	7079.11	10304.3	3853.96				-1.085			
COc1cc(O)c2c(=O)c(O[C@@H]3O[C@H](CO)[C@@H](O)[C@H](O)[C@H]3O)c(-c3ccc(O[C@@H]4O[C@H](CO)[C@@H](O)[C@H](O)[C@H]4O)cc3)oc2c1 [Complanatuside]		-0.533	-0.238				15089	19953.5	10224.5	-0.385			
O=c1oc2cc(O)ccc2c2oc3cc(O)ccc3c12 [Coumestrol]		-0.018	-0.542				16558.4	26137.6	6979.18	-0.28			
O=C(CCc1ccc(O)cc1)c1c(O)cc(O)cc1O [Phloretin]		-0.858	-0.477		16053.8	7668.02	11860.9			-0.667			
Cl.NCC(O)c1ccc(O)c(O)c1 (racemic) [DL-Norepinephrine (hydrochloride)]				22344.8	29267.2	15422.3							
O=c1c(O)c(-c2ccc(O)cc2O)oc2cc(O)cc(O)c12 [Morin]		-1.702	-1.085	3543.97	5911.71	1176.23				-1.394			
